Results reported in patent publication US7189747B2, “Method of treating noninflammatory cartilage damage” (Warner-Lambert Company, priority 2000, dated 2007).
Counter-ions that a name gives are not always drawn.

Experiments:
[1] = tested on: Monosodium Iodoacetate-Induced Osteoarthritis in Rat; assay: MIA Rat: hind-paw weight distribution; assay type: in vivo; conditions: for preventing or treating cartilage damage (conclusion from Table 5): MIA Rat, doses and routes of Table 5; for % Inhibition (of cartilage damage, hind-paw weight distribution): 14 days, Day 14
Excerpt: One end result of the induction of osteoarthritis in this model, as determined by histologic analysis, is the development of an osteoarthritic condition within the affected joint, as characterized by the loss of Toluidine blue staining and formation of osteophytes. Associated with the histologic changes is a concentration-dependent degradation of joint cartilage, as evidenced by affects on hind-paw weight distribution of the limb containing the affected joint, the presence of increased amounts of proteoglycan or hydroxyproline in the joint upon biochemical analysis, or histopathological analysis of the osteoarthritic lesions.
In the MIA Rat model on Day 0, the hind-paw weight differential between the right arthritic joint and the left healthy joint of male Wistar rats (150 g) were determined with an incapacitance tester, model 2KG (Linton Instrumentation, Norfolk, United Kingdom). The incapacitance tester has a chamber on top with an outwardly sloping front wall that supports a rat's front limbs, and two weight sensing pads, one for each hind paw, that facilitates this determination. Then the rats were anesthetized with isofluorine, and the right, hind leg knee joint was injected with 1.0 mg of mono-iodoacetate (“MIA”) through the infrapatellar ligament. […] The rats were further administered either a GABA analog or vehicle (in the instant case, water) daily for 14 days. The GABA analog was typically administered at a dose of 30 mg of GABA analog per kilogram of rat per day (30 mg/kg/day), but may be administered at other doses such as, for example, 10 mg/kg/day, 60 mg/kg/day, or 100 mg/kg/day according to the requirements of the compound being studied. It is well within the level of ordinary skill in the pharmaceutical arts to determine a proper dosage of a GABA analog in this model. In the instant experiment, administration of the GABA analog was optionally by oral administration or intravenous administration via an osmotic pump. After 7 and 14 days, the hind-paw weight distribution was again determined. […] Percent inhibition of cartilage damage was calculated as the percent change in hind-paw weight distribution for treated animals versus control animals:
[formula] wherein: ΔWC is the hind-paw weight differential between the healthy left limb and the arthritic limb of the control animal administered vehicle alone, as measured on Day 14; and • ΔWG is the hind-paw weight differential between the healthy left limb and the arthritic limb of the animal administered a GABA analog, as measured on Day 14.
The results of the hind-paw weight distribution data are shown below in Table 5 in the column labelled “% Inhibition”.

[2] = tested on: Monosodium Iodoacetate-Induced Osteoarthritis in Rat; assay: MIA Rat: free proteoglycan in knee joint; assay type: in vivo; conditions: for treatment of cartilage damage (conclusion from Table 6): MIA Rat, osmotic pump 30 mg/kg/day; for Proteoglycan loss (%) / Inhibition of Proteoglycan loss (%): intravenously by osmotic pump 30 mg/kg/day; for Proteoglycan loss (%): osteoarthritic right knee joint vs contralateral left knee joint, vehicle 18.10 (1b) and 31.90 (2b); for Inhibition of Proteoglycan loss (%): versus vehicle (water)
Excerpt: The incapacitance tester has a chamber on top with an outwardly sloping front wall that supports a rat's front limbs, and two weight sensing pads, one for each hind paw, that facilitates this determination. […] The rats were further administered either a GABA analog or vehicle (in the instant case, water) daily for 14 days. […] It is well within the level of ordinary skill in the pharmaceutical arts to determine a proper dosage of a GABA analog in this model. In the instant experiment, administration of the GABA analog was optionally by oral administration or intravenous administration via an osmotic pump. After 7 and 14 days, the hind-paw weight distribution was again determined. […] Percent inhibition of cartilage damage was calculated as the percent change in hind-paw weight distribution for treated animals versus control animals: In order to measure biochemical or histopathological end points in the MIA Rat model, some of the animals in the above study were then sacrificed, and the amounts of free proteoglycan in both the osteoarthritic right knee joint and the contralateral left knee joint were determined by biochemical analysis. The amount of free proteoglycan in the contralateral left knee joint provides a baseline value for the amount of free proteoglycan in a healthy joint. The amount of proteoglycan in the osteoarthritic right knee joint in animals further administered a GABA analog, and the amount of proteoglycan in the osteoarthritic right knee joint in animals further administered vehicle alone, were independently compared to the amount of proteoglycan in the contralateral left knee joint. The amounts of proteoglycan lost in the osteoarthritic right knee joints were expressed as percent loss of proteoglycan compared to the contralateral left knee joint control. The results are shown below in Table 6 in the column labelled, “Proteoglycan loss (%)”. Also shown in Table 6, in the column labelled “Inhibition of Proteoglycan loss (%)”, is the percent inhibition of proteoglycan loss, which was calculated as {[(proteoglycan loss from joint (%) with vehicle)−(proteoglycan loss from joint with GABA analog)]÷(proteoglycan loss from joint (%) with vehicle)}×100.

[3] = tested on: Experimental Osteoarthritis in Rabbit; assay: EOA in Rabbit: histological grading of synovial membrane; assay type: in vivo; conditions: 150 mg/kg/po/day, 8 weeks after surgery, mean ± SEM
Protocol: (§1) Normal rabbits were anaesthetized and anteromedial incisions of the right knees performed. The anterior cruciate ligaments were visualized and sectioned. The wounds were closed and the animals were housed in individual cages, exercised, and fed ad libitum. Rabbits were given either vehicle (water), gabapentin, or 3-(1-aminomethyl-cyclohexylmethyl)-4h-[1,2,4]oxadiazol-5-one hydrochloride (10 rabbits per group). Each group was dosed three times per day with the gabapentin group receiving 100-mg/kg/dose and the 3-(1-aminomethyl-cyclohexylmethyl)-4h-[1,2,4]oxadiazol-5-one hydrochloride group receiving 50-mg/kg/dose. The rabbits were euthanized 8 weeks after surgery and the proximal end of the tibia and the distal end of the femur were removed from each animal.
Representative specimens of synovial membrane from the medial and lateral knee compartments were dissected from underlying tissues. The specimens were fixed, embedded, and sectioned (5 um) as above, and stained with hematoxylin-eosin. For each compartment, two synovial membrane specimens were examined for scoring purposes and the highest score from each compartment was retained. The average was calculated and considered as a unit for the whole knee. The severity of synovitis was graded on a scale of 0 to 10 by two independent observers, adding the scores of 3 histologic criteria: synovial lining cell hyperplasia (scale 0–2); villous hyperplasia (scale 0–3); and degree of cellular infiltration by mononuclear and polymorphonuclear cells (scale 0–5): 0 indicates normal structure.
(§2) Mean values and SEM was calculated and statistical analysis was done using the Mann-Whitney U-test.

[4] = tested on: Experimental Osteoarthritis in Rabbit; assay: EOA in Rabbit: histologic grading of cartilage lesions (Mankin scale); assay type: in vivo; conditions: for Cells (0–3) / Safranin-O Staining (0–4) / Structure (0–6) / Total (0–13): 150 mg/kg/po/day, 8 weeks after surgery, mean ± SEM
Protocol: as §1
Histologic evaluation was performed on sagittal sections of cartilage from the lesional areas of the femoral condyle and tibial plateau. Serial sections (5 um) were prepared and stained with safranin-O. The severity of OA lesions was graded on a scale of 0–14 by two independent observers using the histologic-histochemical scale of Mankin et al. This scale evaluates the severity of OA lesions based on the loss of safranin-O staining (scale 0–4), cellular changes (scale 0–3), invasion of tidemark by blood vessels (scale 0–1) and structural changes (scale 0–6). On this latter scale, 0 indicates normal cartilage structure and 6 indicates erosion of the cartilage down to the subchondral bone. The scoring system was based on the most severe histologic changes in the multiple sections.
as §2

[5] = tested on: Experimental Osteoarthritis in Rabbit; assay: EOA in Rabbit: macroscopic grading of cartilage lesions; assay type: in vivo
Protocol: as §1
The cartilage changes on the femoral condyles and tibial plateaus were graded separately under a dissecting microscope (Stereozoom, Bausch & Lomb, Rochester, N.Y.). The depth of erosion was graded on a scale of 0 to 4 as follows: grade 0=normal surface; Grade 1=minimal fibrillation or a slight yellowish discoloration of the surface; Grade 2=erosion extending into superficial or middle layers only; Grade 3=erosion extending into deep layers; Grade 4=erosion extending to subchondral bone. The surface area changes was measured and expressed in mm^2. Representative specimens will also be used for histologic grading (see below).
as §2

[6] = daily dose 30 mg/kg, osmotic pump
[7] = 30 mg/kg oral, twice daily dosing of the indicated dose
[8] = 50 mg/kg/dose three times per day, 8 weeks, Table 1

CC(C)CC(CN)Cc1noc(=S)[nH]1.Cl (stereo not drawn)
melting point: 183 to 185 °C

CCCC(C(C)C)C(CN)CC(=O)O (stereo not drawn) (as salt: HCl)
melting point: 160 to 170 °C

CC(C)CC(CN)Cc1noc(=O)[nH]1.Cl (stereo not drawn) [3-(2-Aminomethyl-4-methyl-pentyl)-4H-[1,2,4]oxadiazole-5-one; HCl]
preventing or treating cartilage damage (conclusion from Table 5) [1]: effective | % Inhibition (of cartilage damage, hind-paw weight distribution) [1, 6]: 35 ± 8%

CS(=O)(=O)NCCC1(CN)CCCCC1.Cl
melting point: 196 to 199 °C

Cl.NCC1(CC(=O)O)CC2CCC2C1 (stereo not drawn) [(1α,3α,5α)(3-Aminomethyl-bicyclo[3.2.0]hept-3-yl)-acetic acid hydrochloride]
treatment of cartilage damage (conclusion from Table 6) [2]: effective | Proteoglycan loss (%) [2]: 16.60% | Inhibition of Proteoglycan loss (%) [2]: 48% | % Inhibition (of cartilage damage, hind-paw weight distribution) [1, 6]: −3 ± 34%

Cl.NCC1(Cc2noc(=O)[nH]2)CCCCCC1 [3-(1-aminomethyl-cycloheptylmethyl)-4H-[1,2,4]oxadiazol-5-one hydrochloride]
preventing or treating cartilage damage (conclusion from Table 5) [1]: effective | % Inhibition (of cartilage damage, hind-paw weight distribution) [1, 6]: 62 ± 8%

Cl.NCC1(Cc2noc(=S)[nH]2)CCCCC1
melting point: 210 to 212 °C

Cl.NCC(c1noc(=O)[nH]1)C1CCCC1 (stereo not drawn) [3-(2-amino-1-cyclopentyl-ethyl)-4H-[1,2,4]oxadiazol-5-one hydrochloride]
preventing or treating cartilage damage (conclusion from Table 5) [1]: effective | % Inhibition (of cartilage damage, hind-paw weight distribution) [1, 6]: 104%

NCC1(Cc2nnn[nH]2)CCCCCC1 [C-[1-(1H-tetrazol-5-ylmethyl)-cycloheptyl]-methylamine]
% Inhibition (of cartilage damage, hind-paw weight distribution) [1, 6]: −33 ± 17%

Cl.NCC1(Cc2noc(=O)[nH]2)CCCCC1 [3-(1-Aminomethyl-cyclohexylmethyl)-4H-[1,2,4]oxadiazol-5-one; hydrochloride]
treatment of cartilage damage (conclusion from Table 6) [2]: effective | Proteoglycan loss (%) [2]: 6.70% | Inhibition of Proteoglycan loss (%) [2]: 63% | Cellular Infiltration (0–5 Scale) [3]: 0.35 ± 0.2 | Synovial Lining (0–2 Scale) [3]: 0.85 ± 0.1 | Villous Hyperplasia (0–3 Scale) ([3]; p < 0.001): 1.15 ± 0.1 | Total (0–10) ([3]; p < 0.002): 2.35 ± 0.3 | histologic damage (in words) ([4]; 50 mg/kg/dose three times per day, 8 weeks, text on Table 2 and 3): reduced histologic damage | Cells (0–3) ([4]; Femoral Condyles): 1.60 ± 0.2 | Safranin-O Staining (0–4) ([4]; Femoral Condyles): 1.25 ± 0.3 | Structure (0–6) ([4]; Femoral Condyles, p < 0.01): 1.35 ± 0.3 | Total (0–13) ([4]; Femoral Condyles, p < 0.04): 4.20 ± 0.6 | Cells (0–3) ([4]; Tibial Plateaus): 0.60 ± 0.2 | Safranin-O Staining (0–4) ([4]; Tibial Plateaus): 0.18 ± 0.1 | Structure (0–6) ([4]; Tibial Plateaus): 0.90 ± 0.2 | Total (0–13) ([4]; Tibial Plateaus, p > 0.02): 1.77 ± 0.4 | % Inhibition (of cartilage damage, hind-paw weight distribution) [1, 7]: 47 ± 20% | preventing or treating cartilage damage (conclusion from Table 5) [1]: effective | % Inhibition (of cartilage damage, hind-paw weight distribution) [1, 6]: 46 ± 10% | damage score for both the femoral condyles and the tibial plateaus (in words) [5, 8]: reduced | lesion size on the plateaus (in words) [5, 8]: reduced | Femoral Condyles Size ([5]; 150 mg/kg/po/day (50 mg/kg/dose three times per day), 8 weeks after surgery, mean ± SEM): 6.93 ± 3.1 mm^2 | Tibial Plateaus Size ([5]; 150 mg/kg/po/day (50 mg/kg/dose three times per day), 8 weeks after surgery, mean ± SEM, p < 0.002): 1.95 ± 0.8 mm^2 | Tibial Plateaus Grade (0–4) ([5]; 150 mg/kg/po/day (50 mg/kg/dose three times per day), 8 weeks after surgery, mean ± SEM, p < 0.02): 0.55 ± 0.2 | Femoral Condyles Grade (0–4) ([5]; 150 mg/kg/po/day (50 mg/kg/dose three times per day), 8 weeks after surgery, mean ± SEM, p < 0.04): 0.67 ± 0.2 | treatment of cartilage damage (conclusion from the EOA in Rabbit study) ([5]; gabapentin 100 mg/kg/dose, test compound 50 mg/kg/dose, three times per day, 8 weeks): effective

CC(C)C[C@H](CN)CC(=O)O [Pregabalin, (S)-3-(aminomethyl)-5-methylhexanoic acid, reference compound]
% Inhibition (of cartilage damage, hind-paw weight distribution) [1, 7]: −3 ± 12%
